Key:
[1] = test system: L. donovani strain MHOM/ET/67/L82 axenic amastigotes; assay: Activity against L. donovani axenic amastigotes (resazurin); format: cell-based, Leishmania donovani; conditions: Leishmania donovani, in vitro, Table 2 values are means of two independent assays
Experimental: Activity against L. donovani axenic amastigotes. Amastigotes of L. donovani strain MHOM/ET/67/L82 were grown in axenic culture at 37 °C in SM medium at pH 5.4 supplemented with 10% heat-inactivated fetal bovine serum under an atmosphere of 5% CO2 in air. 100 µL of culture medium with 10^5 amastigotes from axenic culture with or without a serial drug dilution were seeded in 96-well microtiter plates. Serial drug dilutions ranged from 100 to 0.002 μg/mL. After 70 h of incubation, the plates were inspected under an inverted microscope to assure growth of the controls and sterile conditions.

[2] = test system: Litomosoides sigmodontis adult female worms; assay: Anthelmintic assay, motility of adult filariae cultured in vitro; format: cell-based; conditions: 0.1, 1 and 10 µM; scale 0 (immotile) to 2 (maximum motility); 2.0 in media controls
Experimental: (§1) To investigate the activity against filarial nematodes, adult female worms of the rodent filarial nematode Litomosoides sigmodontis were cultured in vitro with a 0.1, 1 and 10 µM concentration of 1. Motility of adult filariae as well as reduction of Wolbachia endosymbionts were assessed. […] L. sigmodontis adult female worms were isolated from chronically infected cotton rats (UKB). Three L. sigmodontis female adult worms per condition were cultured in supplemented Minimal Essential Medium (MEM) on a LLCMK2 cell layer, as previously described. […] Candidate 1 was tested at concentrations of 0.1, 1 and 10 µM. Filarial viability was assessed by determining the mean worm motility scores on a scale of 0 (immotile) to 2 (maximum motility) before drug addition and at 1 h, 1 day, 2 day, 4 day, 6 day, 8 day, 10 day, 12 day and 14 day post drug addition. The drug-containing media was renewed every other day. Depletion of Wolbachia endosymbionts from female adult worms was analyzed after two weeks of in vitro culture and determined as previously described using primers for the single copy gene Wolbachia ftsZ.

E. aerogenes ATCC13048 = assay: Antibacterial assay (MIC); format: cell-based, Enterobacter aerogenes; conditions: Klebsiella aerogenes
Experimental: (§2) The minimal inhibitory concentration (MIC) was determined as described previously in cation-adjusted Mueller-Hinton medium according to the standards and guidelines of the Clinical and Laboratory Standards Institute. […] After an overnight incubation at 37 °C, the MIC was read as the lowest compound concentration preventing visible bacterial growth. The strain panel included representative species of nosocomial pathogens, known as “[…]” bacteria. Specifically, the following strains were used: Enterococcus faecium BM 4147-1, Staphylococcus aureus ATCC 29213, Klebsiella pneumoniae ATCC 12657, Acinetobacter baumannii 09987, Pseudomonas aeruginosa ATCC 27853, and Enterobacter aerogenes ATCC 13048. Bacillus subtilis 168, Escherichia coli ATCC 25922, and Mycobacterium smegmatis mc^2 155 ATCC 700084 were used as further reference strains.

Wolbachia endosymbionts = assay: Anthelmintic assay, depletion of Wolbachia endosymbionts from cultured adult female worms; format: cell-based, Litomosoides sigmodontis; conditions: 0.1, 1 and 10 µM, two weeks of in vitro culture; not statistically significant
Experimental: as §1

[3] = Observed stability of the isolated compounds; format: physicochemical; conditions: rapid decomposition after the NMR measurements
Source text: The shift values of the terminal heterocycle were in very good agreement with literature data from similar natural products, bearing a γ-hydroxy-γ-butenolide moiety. Analogous to compound 7, the Δ^8,10 double bond of 8 was defined as E (C-9: δC 16.2 and NOESY cross correlations depicted in Figure 4). Likewise, based on the same observed diagnostic NOE crosspeaks for the indene system (Figure S43B) and for biogenetic reasons, we propose that 8 is 11R*, 15R*, 18S*, 20R*, 21S* configured. […] Therefore, we integrated computational methods and aimed for quantum-mechanical predictions of ^1H and ^13C NMR chemical shifts of a 1S- and a 1R-configured version of 8.
All tests were performed with 1 as a pre-screening for the scaffold’s activity within their respective assays. Based on the results from the pre-screening, the biological evaluation of the structural congeners was planned. Unfortunately, an instability phenomenon affected the purity of the isolated compounds. Due to the limited amounts of the isolated compounds, repurification would not have yielded the required sample quantity for the assays. This reality precluded biological evaluation of the structural congeners 3–8.

M. smegmatis mc2 155 = assay: Antibacterial assay (MIC); format: cell-based, Mycobacterium smegmatis; conditions: Mycolicibacterium smegmatis, MC2155
Experimental: as §2

[4] = test system: Severe Acute Respiratory Syndrome Corona Virus type 2 (SARS-CoV-2); format: cell-based; conditions: up to the highest concentration tested (10 µM), CaCo2 cells
[5] = test system: HeLa human cervical carcinoma cell line; assay: In vitro cytotoxicity assay with HeLa cells (resazurin); format: cell-based
Experimental: In vitro cytotoxicity assay with HeLa cells: The cytotoxicity test against the HeLa human cervical carcinoma cell line was performed as described previously in RPMI cell culture medium supplemented with 10% fetal bovine serum using the 7-hydroxy-3H-phenoxazin-3-one-10-oxide (resazurin) assay. Briefly, a 2-fold serial dilution of the test compounds was prepared in duplicates in a microtiter plate and seeded with trypsinized HeLa cells to a final cell concentration of 1 × 10^4 cells per well. After 24 h of incubation at 37 °C, with 5% CO2 and 95% relative humidity, resazurin was added at a final concentration of 200 μM, and cells were again incubated overnight. Cell viability was assessed by determining the reduction of resazurin to the fluorescent resorufin. Fluorescence was measured in a TECAN Infinite M200 reader at an excitation wavelength of 560 nm and an emission wavelength of 600 nm in relation to an untreated control.

[6] = test system: P. falciparum NF54 strain; assay: In vitro activity against erythrocytic stages of P. falciparum (3H-hypoxanthine incorporation assay); format: cell-based; conditions: Plasmodium falciparum, Table 2 values are means of two independent assays
Experimental: Activity against P. falciparum. In vitro activity against erythrocytic stages of P. falciparum was determined using a ^3H-hypoxanthine incorporation assay against the drug-sensitive NF54 strain [76]. Compounds were dissolved in DMSO at 10 mg/mL and further diluted in medium before being added to parasite cultures incubated in RPMI 1640 medium without hypoxanthine, supplemented with HEPES (5.94 g/L), NaHCO3 (2.1 g/L), neomycin (100 U/mL), Albumax^R (5 g/L) and washed human red cells A^+ at 2.5% haematocrit (0.3% parasitaemia). Serial drug dilutions ranged from 100 to 0.002 μg/mL. The 96-well plates were incubated in a humidified atmosphere at 37 °C; 4% CO2, 3% O2, 93% N2. After 48 h 50 μL of ^3H-hypoxanthine (=0.5 μCi) was added to each well of the plate. The plates were incubated for a further 24 h under the same conditions. The plates were then harvested with a Betaplate™ cell harvester (Wallac, Zurich, Switzerland) and the red blood cells were transferred onto a glass fiber filter then washed with distilled water. The dried filters were inserted into a plastic foil with 10 mL of scintillation fluid and counted in a Betaplate™ liquid scintillation counter (Wallac, Zurich, Switzerland). IC50 values were calculated from sigmoidal inhibition curves by linear regression using Microsoft Excel. Chloroquine diphosphate (Sigma C6628) was used as control (IC50 0.006 ± 0.002 μM).

CC1=C[C@@H](/C=C(\C)CCCc2ccoc2)[C@]2(OC(=O)C(C)=C2O)[C@@H]2[C@@H](C)CC[C@@H]12 [compound 1, Ircinianin]
IC50 [1]: 16.6 µM | motility score [2]: 1.7–1.8 | MIC (E. aerogenes ATCC13048): > 32 mg/L | Wolbachia reduction in comparison to media controls (Wolbachia endosymbionts): < 32% | Stability of isolated compound [3]: unstable | MIC (M. smegmatis mc2 155): > 32 mg/L | Inhibition of SARS-CoV-2 infection [4]: no inhibition | IC50 [5]: > 64 mg/L | IC50 [6]: 25.4 µM
